# Patent publication US8519183B2, “Uses for amino acid anticonvulsants” (Research Corporation Technologies, Inc., priority 2000, dated 2013)
# Several values for one entry are separate records, joined by “and”; a condition that tells them apart may be missing. Equal entries are not always repeated.
# Tests used:
# [1] = target: T1, serotonin 5-HT1A receptor (Rattus norvegicus, UniProt P19327); assay: 5-MeODMT-induced head twitch; assay type: in vivo, rats
# T1 construct: from tissue; host or cells: living Long Evans derived rat (in vivo)
# T1 sequence (P19327 1-422): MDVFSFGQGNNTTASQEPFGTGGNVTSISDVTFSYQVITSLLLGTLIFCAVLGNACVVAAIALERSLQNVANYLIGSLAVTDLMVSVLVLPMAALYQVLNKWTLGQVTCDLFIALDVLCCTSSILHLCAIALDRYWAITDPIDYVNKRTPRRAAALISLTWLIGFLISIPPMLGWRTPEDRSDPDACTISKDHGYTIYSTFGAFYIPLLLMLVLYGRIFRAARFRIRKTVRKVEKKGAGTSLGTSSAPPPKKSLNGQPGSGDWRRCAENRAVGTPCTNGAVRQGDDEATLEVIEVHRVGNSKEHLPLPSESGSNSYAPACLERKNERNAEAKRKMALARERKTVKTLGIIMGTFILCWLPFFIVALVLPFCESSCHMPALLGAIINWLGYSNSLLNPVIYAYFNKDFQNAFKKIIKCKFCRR
# Experimental: Test substance was administered PO (30 mg/kg) to a group of 3 Long Evans derived male or female rats weighing 150±20 gms one hour before injection of 5-MeODMT (5-methoxy-N,N-dimethyltryptamine, 3 mg/kg IP).
# [2] = test system: ICR derived male or female mice; assay: formalin induced hind paw licking; assay type: in vivo; settings: for Licking Time, Ave.: 5 mice
# Experimental: The degree of pain is determined by measuring the decrease in the amount of time the animal spends licking the formalin-injected paw after administration of the drug.
# Reduction of the induced hind paw licking time recorded during the following 20 to 30 minutes period by 50 percent or more (50%) indicated analgesic activity.
# [3] = target: NMDA receptor (Mus musculus, UniProt P35438); assay: NMDA receptor agonism/antagonism after ICVT administration
# Experimental: Test substance was administered ICVT (intracerebroventricular, 30 μg in 5 μl/mouse). The appearance of convulsions/mortality in 2 or more (≧2) of 3 ICR derived male or female mice weighing 22±2 gms within the 5 minutes thereafter would indicate NMDA receptor agonism. At a dose where no significant agonist activity was seen within 5 minutes, ability to inhibit NMDA (60 mg/kg IV)—induced Tonic convulsions/mortality in 2 or more (≧2) of 3 ICR derived male or female mice weighing 22±gms within the following 5 minutes indicated NMDA receptor antagonist activity.
# [4] = test system: male ICR mice; assay: radiant heat induced tail flick response; assay type: in vivo
# Experimental: Groups of 4 male ICR mice weighing 22±2 gms were employed. A dose (30 mg/kg) of test compound dissolved in a vehicle of saline was administered intraperitoneally. The control group received vehicle alone. At pretreatment (0 minute) a focused beam of radiant heat was applied to the middle dorsal surface of the tail to elicit a tail flick response within 6-7.5 seconds in pre-treated animals. A maximum cut-off time of 15 seconds was set. The time required to elicit a pain response was recorded for each animal at 0 and 30 minutes following administration of test compound. Prolongation by 50 percent or more (≧50%) of the time required to elicit a tail flick indicated analgesic activity.
# [5] = target: glycine strychnine-insensitive site of the NMDA receptor complex (Homo sapiens, UniProt Q05586); assay: affinity at the glycine strychnine-insensitive site of the NMDA receptor complex; assay type: binding
# [6] = test system: ICR derived male or female mice; assay: Analgesia, Acetic Acid Writhing; assay type: in vivo; settings: for No. of Writhes, X ± SEM: group of 3 mice; for No. of Writhes (individual animal): one hour before acetic acid, 5 to 10 minute period; for % Inh.: relative to vehicle control
# Excerpt: In the first animal study in Example 1, the degree of pain experienced by the mice after injection by acetic acid is seen by the number of writhes. If the mice experience no pain, there is no writhing.
# The protocol is based on the acetic acid writhing test in mice, developed by R. Koster, et al. Fed. Proc, 18, 412 […], and referred to a Koster test and Hunskarai, S., et al., J. Neuroscience Meth. 14: 69-76, 1985.
# Reduction in the number of writhes by 50 percent or more (≧50%) per group of animals observed during the 5 to 10 minute period after acetic acid administration, relative to a vehicle treated control group, indicated analgesic activity.
# [7] = target: T2, glycineb/D-serine site (Rattus norvegicus, UniProt P35439); assay: threshold extension in rats, reversal by D-serine; assay type: in vivo; settings: a glycine agonist, dose dependent fashion
# T2 construct: from tissue; host or cells: living rat (in vivo)
compound,measurement,setting,value
"COC[C@@H](NC(C)=O)C(=O)NCc1ccccc1 [Compound I, (R)-2-Acetamido-N-benzyl-3-methoxypropionamide]",potentiation of 5-MeODMT-induced heat twitch,[1]; 30 mg/Kg PO,No potentiation
same,"Head Twitch, Ave.","[1]; 30 mg/kg PO, 3 rats",1
same,% Inh.,[2]; 30 mg/kg PO,22%
same,"Licking Time, Ave.",[2]; 30 mg/kg PO,100 s
same,% Inh.,[2]; 100 mg/kg PO,100%
same,"Licking Time, Ave.",[2]; 100 mg/kg PO,0 s
same,"Licking Time, Indiv.","[2]; 100 mg/kg PO, 20 to 30 minutes after formalin",0 s
same,animals showing slight convulsions,"[2]; 100 mg/kg, at 15 minutes after oral administration, mice","Compound I, at a dose of 100 mg/kg, 5 out of 5 animals showed slight convulsions at 15 minutes after oral administration."
same,animals showing tremors without convulsions,"[3]; 30 μg/mouse, after intracerebroventricular administration",2 out of 3
same,Agonism (mice with convulsions/mortality within 5 minutes),"[3]; ICVT 30 μg/mouse, N 3",0
same,Antagonism (mice protected from NMDA 60 mg/kg IV induced tonic convulsions/mortality),"[3]; ICVT 30 μg/mouse, N 3",1
same,radiant heat induced tail flick response (in words),[4]; 30 mg/Kg,unaffected
same,% Inh.,[4]; 30 mg/kg IP,0%
same,Response Time 30 Min. (individual animal),"[4]; 30 mg/kg IP, 30 minutes after administration, cut-off 15 seconds",5.8 and 5.0 and 6.0 and 6.2
same,"Response Time 30 Min., X","[4]; 30 mg/kg IP, mean of 4 mice",5.8
same,"Response Time 0 Min., X","[4]; 30 mg/kg IP, mean of 4 mice, pretreatment",6.7
same,Response Time 0 Min. (individual animal),"[4]; 30 mg/kg IP, pretreatment (0 minute)",6.4 (2×) and 7.3 and 6.5
same,IC50,[5],5.3 µM
same,"No. of Writhes, X ± SEM",[6]; 30 mg/kg PO,X ± SEM 15 ± 1.7
same,No. of Writhes (individual animal),[6]; 30 mg/kg PO,18 and 12 and 15
same,% Inh.,[6]; 30 mg/kg PO,4%
same,"No. of Writhes, X ± SEM",[6]; 100 mg/kg PO,X ± SEM 0 ± 0
same,No. of Writhes (individual animal),[6]; 100 mg/kg PO,0
same,% Inh.,[6]; 100 mg/kg PO,100%
same,animals showing slight convulsions,"[6]; 100 mg/kg, 15 minutes after oral administration, mice","Compound I, at a dose of 100 mg/kg, 3 out of 3 animals showed slight convulsions 15 minutes after oral administration."
same,"effects on threshold extension in rats, reversal by D-serine",[7],can be reversed by D-serine
